7 molecules from ChEMBL document CHEMBL5465560, “Selectivity Literature for EUbOPEN Chemogenomic Library” (2024) can be followed below.

Assay [1] concerns the target Citron Rho-interacting kinase (Homo sapiens) (UniProt O14578). Put plainly: Selectivity interaction (KinomeScan (DiscoverX)) EUB0000607a CIT. The conditions noted are these: at 10 µM.
In assay [2] the target is Bromodomain-containing protein 4 (Homo sapiens, UniProt O60885). Put plainly: Selectivity interaction (Kinase panel (DSF assay)) EUB0001558a BRD4. A general note: DSF heats the sample and reads unfolding from a dye or from intrinsic fluorescence.
In assay [3] the target is T1, Cyclin-dependent kinase 11A (Homo sapiens) (UniProt Q9UQ88).
T1 sequence (whole entry): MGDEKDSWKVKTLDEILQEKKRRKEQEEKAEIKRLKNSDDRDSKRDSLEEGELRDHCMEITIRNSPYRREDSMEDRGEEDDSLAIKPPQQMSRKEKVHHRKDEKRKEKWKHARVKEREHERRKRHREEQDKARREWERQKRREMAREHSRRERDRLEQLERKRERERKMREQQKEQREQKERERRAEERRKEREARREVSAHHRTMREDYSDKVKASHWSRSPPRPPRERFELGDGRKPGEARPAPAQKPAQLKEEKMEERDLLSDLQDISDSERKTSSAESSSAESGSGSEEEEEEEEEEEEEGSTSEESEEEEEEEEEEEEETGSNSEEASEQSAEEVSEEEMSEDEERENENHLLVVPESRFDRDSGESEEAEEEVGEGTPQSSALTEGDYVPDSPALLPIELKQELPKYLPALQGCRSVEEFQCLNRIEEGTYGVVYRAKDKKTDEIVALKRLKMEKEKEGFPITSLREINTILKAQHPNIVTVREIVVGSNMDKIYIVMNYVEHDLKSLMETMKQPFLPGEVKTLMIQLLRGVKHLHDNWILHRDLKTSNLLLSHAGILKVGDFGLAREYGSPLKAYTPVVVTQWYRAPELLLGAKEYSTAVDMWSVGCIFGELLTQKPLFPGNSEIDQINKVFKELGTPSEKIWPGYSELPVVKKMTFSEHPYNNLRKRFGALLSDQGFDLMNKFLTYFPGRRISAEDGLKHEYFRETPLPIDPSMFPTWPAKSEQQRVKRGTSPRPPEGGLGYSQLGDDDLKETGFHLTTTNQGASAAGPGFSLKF
Put plainly: Selectivity interaction (ActivX KiNativ screen (ex vivo kinase selectivity in human PBMCs)) EUB0001619a CDK11A. The format is cell-based. The conditions noted are these: PBMC, at 1 µM.

For assay [4], the target named is cAMP-dependent protein kinase catalytic subunit alpha (Homo sapiens, UniProt P17612). Put plainly: Selectivity interaction (Kinase panel (33PanQinase(R) Activity Assay)) EUB0000877a PRKACA.
The target in assay [5] is Serine/threonine-protein kinase WNK2 (Homo sapiens) (UniProt Q9Y3S1). Put plainly: Selectivity interaction (ActivX KiNativ screen (kinase selectivity in THP-1 cell lysates)) EUB0000639a WNK2. The conditions noted are these: lysate, at 1 µM. The format is subcellular.
Assay [6] deals with T2, Phosphorylase b kinase gamma catalytic chain, liver/testis isoform (Homo sapiens) (UniProt P15735).
T2 sequence (whole entry): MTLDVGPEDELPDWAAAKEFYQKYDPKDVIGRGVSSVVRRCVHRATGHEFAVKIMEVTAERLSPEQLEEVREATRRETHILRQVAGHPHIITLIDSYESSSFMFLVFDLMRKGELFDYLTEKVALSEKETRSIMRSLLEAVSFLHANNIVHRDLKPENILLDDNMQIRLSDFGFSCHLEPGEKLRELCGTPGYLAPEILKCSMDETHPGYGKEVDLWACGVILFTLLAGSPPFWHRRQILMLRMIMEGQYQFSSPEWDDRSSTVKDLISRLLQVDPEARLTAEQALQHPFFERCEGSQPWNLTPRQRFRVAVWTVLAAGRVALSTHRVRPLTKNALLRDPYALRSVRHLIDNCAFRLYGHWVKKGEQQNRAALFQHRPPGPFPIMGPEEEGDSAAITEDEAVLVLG
Put plainly: Selectivity interaction (KinomeScan (DiscoverX)) EUB0001049a PHKG2. The conditions noted are these: at 1 µM.

Assay [7] has as its target T3, Mitogen-activated protein kinase kinase kinase 15 (Homo sapiens) (UniProt Q6ZN16).
T3 sequence (whole entry): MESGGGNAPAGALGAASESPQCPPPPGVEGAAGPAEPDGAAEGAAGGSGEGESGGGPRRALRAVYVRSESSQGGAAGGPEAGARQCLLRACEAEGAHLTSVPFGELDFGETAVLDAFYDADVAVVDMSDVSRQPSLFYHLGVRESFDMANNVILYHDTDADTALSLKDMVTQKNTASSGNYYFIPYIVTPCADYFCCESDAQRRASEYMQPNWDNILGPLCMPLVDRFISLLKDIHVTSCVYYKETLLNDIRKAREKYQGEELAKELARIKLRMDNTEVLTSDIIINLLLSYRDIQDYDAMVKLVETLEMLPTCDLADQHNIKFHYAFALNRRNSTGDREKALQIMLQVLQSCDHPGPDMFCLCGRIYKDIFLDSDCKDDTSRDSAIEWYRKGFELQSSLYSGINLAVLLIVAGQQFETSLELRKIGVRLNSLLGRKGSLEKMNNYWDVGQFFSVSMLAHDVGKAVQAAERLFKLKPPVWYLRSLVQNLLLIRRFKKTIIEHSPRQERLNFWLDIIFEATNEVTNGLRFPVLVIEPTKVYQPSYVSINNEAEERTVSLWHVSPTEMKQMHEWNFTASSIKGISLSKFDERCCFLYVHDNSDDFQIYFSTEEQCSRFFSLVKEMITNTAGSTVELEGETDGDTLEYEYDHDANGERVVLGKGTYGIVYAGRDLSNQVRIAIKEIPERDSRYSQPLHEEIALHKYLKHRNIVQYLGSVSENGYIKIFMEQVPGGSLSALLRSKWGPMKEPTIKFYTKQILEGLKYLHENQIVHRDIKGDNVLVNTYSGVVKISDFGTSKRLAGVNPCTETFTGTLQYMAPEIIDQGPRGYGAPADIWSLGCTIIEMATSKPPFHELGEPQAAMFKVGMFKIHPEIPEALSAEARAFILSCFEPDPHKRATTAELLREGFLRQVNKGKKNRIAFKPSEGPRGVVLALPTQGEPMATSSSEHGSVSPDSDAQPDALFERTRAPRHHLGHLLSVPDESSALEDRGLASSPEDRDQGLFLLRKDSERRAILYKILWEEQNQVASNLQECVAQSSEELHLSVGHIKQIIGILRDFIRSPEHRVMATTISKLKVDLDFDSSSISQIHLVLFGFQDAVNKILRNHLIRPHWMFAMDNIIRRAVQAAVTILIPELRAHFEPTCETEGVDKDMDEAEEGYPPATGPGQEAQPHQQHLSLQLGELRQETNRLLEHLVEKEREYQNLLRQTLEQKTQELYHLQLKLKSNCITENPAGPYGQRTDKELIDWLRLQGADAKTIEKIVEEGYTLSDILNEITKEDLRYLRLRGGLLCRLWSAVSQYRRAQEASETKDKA
Put plainly: Selectivity interaction (KinomeScan (DiscoverX)) EUB0000045b MAP3K15.

Sequence of Citron Rho-interacting kinase (Homo sapiens) (O14578 whole entry): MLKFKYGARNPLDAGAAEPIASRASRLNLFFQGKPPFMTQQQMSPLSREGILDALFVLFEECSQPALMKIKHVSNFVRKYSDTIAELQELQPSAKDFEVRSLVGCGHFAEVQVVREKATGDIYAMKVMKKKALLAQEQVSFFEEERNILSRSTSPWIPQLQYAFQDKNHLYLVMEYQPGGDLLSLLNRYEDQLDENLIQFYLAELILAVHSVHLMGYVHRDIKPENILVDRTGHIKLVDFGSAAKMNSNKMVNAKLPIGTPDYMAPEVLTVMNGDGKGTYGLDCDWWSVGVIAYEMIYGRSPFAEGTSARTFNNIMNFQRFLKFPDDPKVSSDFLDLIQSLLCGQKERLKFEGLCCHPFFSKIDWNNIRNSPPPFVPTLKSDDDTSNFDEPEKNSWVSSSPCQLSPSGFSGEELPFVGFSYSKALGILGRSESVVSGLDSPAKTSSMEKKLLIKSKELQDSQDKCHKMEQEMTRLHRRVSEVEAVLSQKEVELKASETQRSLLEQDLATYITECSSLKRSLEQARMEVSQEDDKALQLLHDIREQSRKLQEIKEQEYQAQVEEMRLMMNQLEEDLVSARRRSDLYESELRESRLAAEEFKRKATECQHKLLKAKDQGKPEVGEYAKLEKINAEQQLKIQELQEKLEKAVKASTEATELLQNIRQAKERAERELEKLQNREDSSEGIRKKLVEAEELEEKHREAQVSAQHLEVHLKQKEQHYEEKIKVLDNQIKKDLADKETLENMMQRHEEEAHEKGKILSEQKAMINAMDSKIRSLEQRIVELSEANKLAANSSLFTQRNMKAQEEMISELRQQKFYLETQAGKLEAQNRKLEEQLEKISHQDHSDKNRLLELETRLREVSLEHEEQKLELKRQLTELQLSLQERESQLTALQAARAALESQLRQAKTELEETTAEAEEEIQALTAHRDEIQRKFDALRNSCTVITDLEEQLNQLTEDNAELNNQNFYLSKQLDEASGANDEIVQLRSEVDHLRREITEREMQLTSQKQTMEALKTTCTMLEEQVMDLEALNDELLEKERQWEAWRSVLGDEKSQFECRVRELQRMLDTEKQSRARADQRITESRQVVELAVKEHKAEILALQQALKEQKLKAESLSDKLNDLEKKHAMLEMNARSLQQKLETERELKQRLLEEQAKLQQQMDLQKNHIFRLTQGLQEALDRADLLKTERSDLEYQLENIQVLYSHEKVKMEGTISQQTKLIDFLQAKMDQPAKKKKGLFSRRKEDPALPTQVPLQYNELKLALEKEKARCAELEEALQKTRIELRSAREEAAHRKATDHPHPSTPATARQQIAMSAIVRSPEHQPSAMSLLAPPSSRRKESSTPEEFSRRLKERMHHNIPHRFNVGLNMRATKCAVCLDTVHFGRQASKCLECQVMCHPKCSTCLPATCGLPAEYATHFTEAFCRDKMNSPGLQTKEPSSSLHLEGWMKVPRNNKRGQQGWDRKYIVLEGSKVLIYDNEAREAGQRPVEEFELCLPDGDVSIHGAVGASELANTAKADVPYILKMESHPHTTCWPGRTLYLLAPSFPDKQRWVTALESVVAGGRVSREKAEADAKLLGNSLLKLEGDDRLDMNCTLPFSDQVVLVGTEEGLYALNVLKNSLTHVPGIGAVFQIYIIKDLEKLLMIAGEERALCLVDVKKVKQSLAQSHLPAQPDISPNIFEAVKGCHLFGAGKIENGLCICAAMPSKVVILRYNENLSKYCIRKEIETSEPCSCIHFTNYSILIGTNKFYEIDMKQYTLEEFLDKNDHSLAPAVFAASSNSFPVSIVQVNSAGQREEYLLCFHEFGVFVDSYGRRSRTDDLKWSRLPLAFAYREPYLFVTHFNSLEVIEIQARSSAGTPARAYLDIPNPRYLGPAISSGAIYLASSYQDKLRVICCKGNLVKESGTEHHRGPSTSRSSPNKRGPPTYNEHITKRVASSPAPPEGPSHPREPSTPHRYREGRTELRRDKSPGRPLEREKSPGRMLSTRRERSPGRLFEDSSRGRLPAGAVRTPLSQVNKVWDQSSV
Sequence of Serine/threonine-protein kinase WNK2 (Homo sapiens) (Q9Y3S1 whole entry, canonical isoform): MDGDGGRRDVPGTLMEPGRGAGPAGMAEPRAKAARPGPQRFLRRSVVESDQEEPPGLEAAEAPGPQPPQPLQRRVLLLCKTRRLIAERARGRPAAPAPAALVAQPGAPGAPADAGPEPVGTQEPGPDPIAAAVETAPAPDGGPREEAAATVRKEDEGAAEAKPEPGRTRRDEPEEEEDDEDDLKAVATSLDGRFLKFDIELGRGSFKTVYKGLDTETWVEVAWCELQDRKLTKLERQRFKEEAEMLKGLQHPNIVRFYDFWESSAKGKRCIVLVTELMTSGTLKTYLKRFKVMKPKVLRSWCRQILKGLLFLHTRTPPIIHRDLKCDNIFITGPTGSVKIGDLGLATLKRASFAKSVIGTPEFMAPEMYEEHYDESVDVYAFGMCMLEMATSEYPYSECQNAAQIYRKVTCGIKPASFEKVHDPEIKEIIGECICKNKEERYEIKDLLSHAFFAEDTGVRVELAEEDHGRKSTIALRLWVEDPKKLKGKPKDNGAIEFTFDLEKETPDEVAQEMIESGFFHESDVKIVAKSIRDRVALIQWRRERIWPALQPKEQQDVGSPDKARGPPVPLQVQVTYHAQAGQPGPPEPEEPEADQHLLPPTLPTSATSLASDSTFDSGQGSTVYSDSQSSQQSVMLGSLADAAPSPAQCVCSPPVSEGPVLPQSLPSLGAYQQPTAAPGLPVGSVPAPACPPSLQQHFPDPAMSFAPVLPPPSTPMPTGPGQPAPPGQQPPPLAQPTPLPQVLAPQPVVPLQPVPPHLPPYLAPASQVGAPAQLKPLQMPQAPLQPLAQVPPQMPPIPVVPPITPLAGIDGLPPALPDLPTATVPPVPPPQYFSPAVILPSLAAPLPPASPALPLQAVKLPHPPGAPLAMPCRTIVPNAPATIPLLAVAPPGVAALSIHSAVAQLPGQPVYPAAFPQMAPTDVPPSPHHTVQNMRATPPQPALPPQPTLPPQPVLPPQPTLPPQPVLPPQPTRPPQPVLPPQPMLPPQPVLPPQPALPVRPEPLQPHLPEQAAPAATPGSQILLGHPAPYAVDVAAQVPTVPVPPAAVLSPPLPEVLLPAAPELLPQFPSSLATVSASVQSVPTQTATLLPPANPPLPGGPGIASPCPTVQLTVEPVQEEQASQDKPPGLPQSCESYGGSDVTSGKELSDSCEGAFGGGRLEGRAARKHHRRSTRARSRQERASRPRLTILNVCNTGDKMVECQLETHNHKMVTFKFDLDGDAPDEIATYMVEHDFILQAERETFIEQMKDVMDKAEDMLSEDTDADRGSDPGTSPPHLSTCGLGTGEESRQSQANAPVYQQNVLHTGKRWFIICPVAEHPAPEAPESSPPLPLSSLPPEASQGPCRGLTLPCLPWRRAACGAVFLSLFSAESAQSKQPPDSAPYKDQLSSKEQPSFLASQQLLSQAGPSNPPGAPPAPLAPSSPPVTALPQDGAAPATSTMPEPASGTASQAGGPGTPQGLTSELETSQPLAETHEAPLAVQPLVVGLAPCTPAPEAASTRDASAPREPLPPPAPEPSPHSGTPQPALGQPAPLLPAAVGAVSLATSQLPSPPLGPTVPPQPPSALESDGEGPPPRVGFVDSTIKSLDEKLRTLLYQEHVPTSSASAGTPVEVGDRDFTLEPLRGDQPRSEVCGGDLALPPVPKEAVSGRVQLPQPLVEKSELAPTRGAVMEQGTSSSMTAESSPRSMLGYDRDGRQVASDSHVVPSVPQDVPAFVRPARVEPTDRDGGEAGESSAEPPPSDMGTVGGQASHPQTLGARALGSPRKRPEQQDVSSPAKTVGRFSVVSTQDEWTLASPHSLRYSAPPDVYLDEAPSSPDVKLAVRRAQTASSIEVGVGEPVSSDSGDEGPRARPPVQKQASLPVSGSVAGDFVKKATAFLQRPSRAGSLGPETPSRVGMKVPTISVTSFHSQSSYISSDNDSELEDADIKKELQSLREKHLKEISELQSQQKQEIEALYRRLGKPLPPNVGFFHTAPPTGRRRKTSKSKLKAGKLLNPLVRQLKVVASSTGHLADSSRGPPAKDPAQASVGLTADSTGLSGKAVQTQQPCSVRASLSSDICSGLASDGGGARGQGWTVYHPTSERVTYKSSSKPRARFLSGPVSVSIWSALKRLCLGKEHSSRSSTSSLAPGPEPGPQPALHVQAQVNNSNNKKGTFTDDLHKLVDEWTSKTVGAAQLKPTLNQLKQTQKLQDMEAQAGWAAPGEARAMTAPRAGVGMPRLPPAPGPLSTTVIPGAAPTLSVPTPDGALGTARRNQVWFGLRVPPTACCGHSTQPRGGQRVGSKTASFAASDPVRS

`CNC(=O)Nc1ccc(-c2nc(N3CC4CCC(C3)O4)c3cnn(C4CCC5(CC4)OCCO5)c3n2)cc1` showed a % of control in assay [1] of 100%. Regarding `CC(C)(O)[C@H](F)CN1Cc2cc(NC(=O)c3cnn4cccnc34)c(N3CCOCC3)cc2C1=O`, the dTM in assay [2] was 0.4 K. As for `N#Cc1cccc(-c2c[nH]c3ncnc(N4CCOCC4)c23)c1`, the % of inhibition in assay [3] came to 11%. As a reminder, the IC50 is the concentration that gives 50% inhibition. In turn, `CCC(=O)N1CC[C@H](Nc2ncnc3c2CN(c2cnc(OC)c(C(F)(F)F)c2)CC3)C1` [LENIOLISIB] showed an IC50 in assay [4] of over 10 µM.

Take `CC[C@@H]1[C@H](F)C(=O)N[C@@H]1COc1nccc2cc(C(N)=O)c(OC)cc12` [ZIMLOVISERTIB]: in assay [5], the % of inhibition was -7.7%. `COc1cc(Nc2nc(C)cc(-c3cnn4nc(OC)ccc34)n2)cc(C(F)(F)F)c1` showed a % of control in assay [6] of 100%.

`C=CC(=O)Nc1cc(-n2c(=O)ccc3cnc4ccc(-c5ccc(NS(C)(=O)=O)cc5)cc4c32)ccc1C`: the figures for the % of control in assay [7] (at 1 µM) and in assay [7] (at 10 µM) were 70% and 100%, respectively.
